≈ marks a conversion by molar mass, not a printed value. Read-outs that look alike come from different tables or passages of the source.

A short description of series [1]: Open study, THC-CBD inhaled (pMDI) vs intravenous, plasma pharmacokinetics by GC/MS. It counts as in vivo, healthy volunteers. Conditions: for time measurable in plasma after administration: 360 mcg i.h. and i.v. doses; for half-life: human, plasma, 720 ug, read-out: elimination half-lives; for half-life / mean i.h. bioavailability (calculated vs. i.v.) / time of plasma peak post-drug: 720 mcg. The source says:
In an open study on 12 healthy volunteers a combination of THC and cannabidiol (CBD) was compared after inhalation (i.h.) and intravenously (i.v.) (see Rudolf Brenneisen, Pascale Meyer, Manuela Langos, Christian Steup and Andrew Davies, IACM Congress 2007, 05.10.2007 Cologne).
The liquid aerosol was produced by an in-vitro validated pMDI device, releasing about 45% of the cannabinoid dose, enabling a dosage of about 90 mcg THC and 90 mcg CBD per actuation. The actuator was used from Bespak with an orifice diameter of 0.22mm.
Three subjects (pilot study) received 360 and 9 subjects 720 mcg THC-CBD, corresponding to 4 and 8 actuations, respectively. The addition of a Lidocain HCL to the pulmonal preparation was expected to prevent mucosa irritation and coughing. The pharmacokinetic evaluation was based on plasma profiles aquired by GC/MS. Adverse effects were monitored by visual analog scales (VAS) and measuring vital functions.

Series [2] can be described thus: Solubility of local anaesthetic in ethanol and HFA 227.
The conditions of series [3]: oral; cited from earlier work.
For series [4] the following is noted: after inhalation of a THC aerosol, Pari Master; cited from earlier work.

For `C=C(C)[C@@H]1CCC(C)=C[C@H]1c1c(O)cc(CCCCC)cc1O` [CBD, Cannabidiol], in series [1], the “time measurable in plasma after administration” value is at most 20 min. Moreover, the half-life in series [1] (inhaled, i.h.) was determined as 11 min; in series [1] (iv, i.v.), 24 min. Further, the “mean i.h. bioavailability (calculated vs. i.v.)” value in series [1] (i.h.) was 59 ± 47%. Besides, the “time of plasma peak post-drug” value in series [1] (i.h.) and in series [1] (i.v.) was 5 min in each case.
As to `CCCCNc1ccc(C(=O)OCCN(C)C)cc1` [Tetracain, Tetracaine Base], the solubility – broadly, the concentration that dissolves in the medium under given conditions – in series [2] (ethanol, organic solvent or mixture) turned out to be 450 mg/mL (≈ 1700 mM); in series [2] (hfa 227, organic solvent or mixture) it was 40 mg/mL (≈ 151 mM). Besides, in series [2] (in Ethanol), the “Limit of solubility in Ethanol” value is 450 mg/mL. Further, in series [2] (in HFA 227), the “Limit of solubility in HFA 227” value was found to be 40 mg/mL.
On to `CCCCCc1cc(O)c2c(c1)OC(C)(C)[C@@H]1CCC(C)=C[C@@H]21` [THC, delta-9-Tetrahydrocannabinol], for which, in series [1], the “time measurable in plasma after administration” value is reported as at most 20 min. The main metabolite result in series [1] (after i.h.) is given as “Conjugated 11-carboxy-THC”. The THC metabolism entry in series [1] (after i.h., compared with oral (p.o.) administration) is recorded as “less pronounced than after oral”. For the same compound, the half-life was determined as 7 min in series [1] (inhaled, i.h.) and 22 min in series [1] (iv, i.v.). In addition, the “mean i.h. bioavailability (calculated vs. i.v.)” value in series [1] (i.h.) is on record as 55 ± 37%. The “time of plasma peak post-drug” value in series [1] (i.h.) and in series [1] (i.v.) was 5 min each time. The bioavailability (usually dose-corrected exposure relative to a reference, in per cent) in series [3] was 5-20%; in series [4] it was 29%.
